Test system: BHK-21 DENV2 CPE protection, ATP luminescence, 5 d
Assay: Dengue virus 2 cytopathic effect protection, dose response, BHK-21 cells, ATP luminescence, cherry-pick (AID 687031)

Row | Structure (SMILES) | AC30 [µM]
1 | CCCNC(=O)C[C@H]1CC[C@@H]2[C@H](COC[C@@H](O)CN2C(=O)c2ccccn2)O1 | 17.3
2 | O=C(C1CCOCC1)N1C[C@H]2[C@@H](c3ccccc31)[C@@H](CO)N2C(=O)c1ccccc1 | 18.8
3 | CCOc1ccc2[nH]cc(S(=O)(=O)c3ccc(C)cc3)c(=O)c2c1 | 13
4 | Cn1cnc(S(=O)(=O)N[C@@H]2C=C[C@H](CC(=O)N3CCN(c4ccccc4)CC3)O[C@@H]2CO)c1 | 17
5 | COc1ccc(CN2CCNC(=O)C2CC(=O)NCC2CCOCC2)c(C)c1C (centres undefined) | 15.7
6 | CC1CCN(C(=O)COC(=O)CNC(=O)c2ccccc2F)CC1 | 19.4
7 | CS(=O)(=O)N1C[C@@H]2N[C@H](C1)[C@@H]2c1ccc(-c2ccccc2)cc1 | 5.51
8 | COC(=O)N1CCCCC1c1cc(C(=O)Nc2ccc(OC)cc2C)no1 (centres undefined) | 13
9 | Cc1cc(F)cc(-c2cc(C(=O)NCC3CCCCC3)[nH]n2)c1 | 10
10 | CC1CCCN(C(=O)c2ccc(S(=O)(=O)Nc3ccccc3Cl)cc2)C1 (centres undefined) | 13.5
11 | C[C@H](NC(=O)[C@H]1N[C@H]2c3ccc(-c4cccnc4)c(=O)n3C[C@H]2[C@@H]1CO)c1ccccc1 | 12.5
12 | C[C@@H]1CCCCO[C@H](CN(C)S(=O)(=O)c2ccccc2)[C@@H](C)CN([C@@H](C)CO)C(=O)c2cc(NC(=O)c3ccncc3)ccc2O1 | 17.6
13 | Cc1cc(C)cc(NC(=O)Cn2nnc(C(=O)NCc3cccs3)c2N)c1 | 13.3
14 | CCc1c(C2(O)CCCCC2)[nH]c2c(C(=O)OC)cc(Cl)cc12 | 12.3
15 | CC(=O)N1CCN(C(=O)COC(=O)COc2c(C)cc(C)cc2C)CC1 | 11.7
16 | COC(=O)[C@@H]1[C@@H](CO)[C@@H]2Cn3c(ccc(C4=CCCC4)c3=O)[C@H]1N2Cc1ccccn1 | 17.2
17 | O=C1[C@@H](Oc2ccccc2)[C@@H](c2ccncc2)N1c1ccccc1 | 14.2
18 | CC1CCN(CCOc2ccc(OCc3ccccc3)cc2)CC1 | 11.3
19 | O=S(=O)(c1ccc2c(c1)OCCO2)N1CCCN(S(=O)(=O)c2c(F)cccc2F)CC1 | 17.5
20 | FC(F)(F)c1cccnc1Oc1ccc(C2=NCCS2)cc1 | 8.01
21 | Nc1ncccc1C(=O)OCC(=O)N1CCN(S(=O)(=O)c2ccc(Cl)cc2)CC1 | 19
22 | O=C(O)C1C2C=CC(C2)C1C(=O)NCc1ccccc1 (centres undefined) | 15.5
23 | C[C@H](CO)N1C[C@H](C)[C@H](CN(C)C(=O)Nc2ccc(-c3ccccc3)cc2)OCc2ccccc2-c2c(n(C)c3ccccc23)C1=O | 17.7
24 | CCOC(=O)N1CCN(C(C(=O)NC2CCCC2)C(C)C)CC1 (centres undefined) | 9.37
25 | COc1cccc(-c2ccc(C3[C@@H]4CN(S(=O)(=O)c5cn(C)cn5)C[C@H]3N4)cc2)c1 (some centres undefined) | 7.87

Row | Structure (SMILES) | AC30 [µM]
26 | CC(C)[C@H](NC(=O)N1C[C@H]2C[C@@H](C1)c1cccc(=O)n1C2)C(=O)Nc1ccccc1F | 16.2
27 | Cc1cc(F)ccc1C(O)c1ncc(-c2ccccc2C(F)(F)F)[nH]1 (centres undefined) | 18.4
28 | Cc1c(C(=O)OC(C)C)sc(N)c1C(=O)OC(C)C | 18.6
29 | O=C(c1ccccc1)N1CC[C@@H]2[C@H](CO)Nc3ccc(C#Cc4cccc(F)c4)cc3[C@@H]21 | 3.21
30 | COc1ccc(C(N)c2csc(Nc3cc(Oc4ccccc4)ncn3)n2)cc1 (centres undefined) | 17.4
31 | Cc1noc(C)c1NC(=O)Nc1ccc2c(c1)C(=O)N([C@@H](C)CO)C[C@@H](C)[C@@H](CN(C)S(C)(=O)=O)OCCCC[C@@H](C)O2 | 18.6
32 | Cc1ccc(C(=O)NCC(=O)NCC(c2cccs2)N2CCOCC2)cc1C (centres undefined) | 14.8
33 | Cc1ccccc1S(=O)(=O)N1CC[C@@H]2[C@H](CO)Nc3ccc(-c4cccc(C#N)c4)cc3[C@@H]21 | 15.9
34 | c1ccc(C2CC2)c(OCC2=NCCN2)c1 | 9.54
35 | OC(CSc1nnnn1-c1ccccc1)Cn1c2ccccc2c2ccccc21 (centres undefined) | 18.8
36 | COC(=O)[C@H]1CN(C(=O)c2ccccc2)C(=O)N1 | 5.13
37 | C[C@H](NC(=O)CCCOc1ccc(Cl)cc1Cl)c1nnc2ccccn12 | 16.2
38 | NC(=O)c1ccsc1NC(=O)COC(=O)[C@@H]1CCCN1C(=O)c1cccs1 | 11
39 | CCC[C@@H]1CCCO[C@@](C(=O)NCc2ccccn2)(C(F)(F)F)C1 | 10
40 | CN(C)CC(=O)Nc1ccc2c(c1)[C@@H]1C[C@@H](CC(=O)NC3CCCCC3)O[C@H](CO)[C@@H]1O2 | 8.06
41 | CCNS(=O)(=O)c1ccc(Br)c(C(=O)OC(C)C(=O)NCC2CCCCC2)c1 (centres undefined) | 2.25
42 | COCCNC(=O)CCC1CCN(C/C=C/c2ccccc2OC)CC1 | 19.3
43 | Cc1cc(OC(C)C(=O)NC2CC(C)(C)NC(C)(C)C2)c2c(C)c(C)c(=O)oc2c1 (centres undefined) | 2.89
44 | CCN(CC(=O)NCC(=O)Nc1cccc(C)c1C)Cc1ccccc1 | 19.3
45 | CCN(CC)CC(=O)N1CCCC(N2CCN(c3cccc(C(F)(F)F)c3)CC2)C1 (centres undefined) | 19.1
46 | CC1CCCC(NC(=O)COC(=O)c2ccccc2Sc2ccccc2C#N)C1C (centres undefined) | 12.7
47 | Cc1cccc([C@@H]2[C@@H]3C(=O)N(C)C(=O)[C@@H]3[C@@H]3C(=O)Nc4ccccc4C(=O)N23)c1 | 18.7
48 | CSc1ccccc1OCc1cc(C(=O)N2CCc3[nH]cnc3C2c2ccccn2)no1 (centres undefined) | 9.97
49 | Oc1cccc2nc3ccccc3nc12 | 14.4

— PubChem BioAssay AID687031 (Broad Institute, 2013)
